Results from patent US9492471B2, “Methods of treating a disease or disorder associated with Bruton'S Tyrosine Kinase” (Celgene Avilomics Research, Inc., priority 2013, dated 2016).
Like-named read-outs stand apart in the source and are kept apart here.

Legend:
Experiment in all cases: HotSpot kinase profiling
Type in all cases: biochemical
ASK1/MAP3K5 = molecular target: T1, ASK1/MAP3K5 (Homo sapiens, UniProt Q99683)
T1 construct: purchased Reaction Biology Corp
T1 sequence (Q99683 1-1374): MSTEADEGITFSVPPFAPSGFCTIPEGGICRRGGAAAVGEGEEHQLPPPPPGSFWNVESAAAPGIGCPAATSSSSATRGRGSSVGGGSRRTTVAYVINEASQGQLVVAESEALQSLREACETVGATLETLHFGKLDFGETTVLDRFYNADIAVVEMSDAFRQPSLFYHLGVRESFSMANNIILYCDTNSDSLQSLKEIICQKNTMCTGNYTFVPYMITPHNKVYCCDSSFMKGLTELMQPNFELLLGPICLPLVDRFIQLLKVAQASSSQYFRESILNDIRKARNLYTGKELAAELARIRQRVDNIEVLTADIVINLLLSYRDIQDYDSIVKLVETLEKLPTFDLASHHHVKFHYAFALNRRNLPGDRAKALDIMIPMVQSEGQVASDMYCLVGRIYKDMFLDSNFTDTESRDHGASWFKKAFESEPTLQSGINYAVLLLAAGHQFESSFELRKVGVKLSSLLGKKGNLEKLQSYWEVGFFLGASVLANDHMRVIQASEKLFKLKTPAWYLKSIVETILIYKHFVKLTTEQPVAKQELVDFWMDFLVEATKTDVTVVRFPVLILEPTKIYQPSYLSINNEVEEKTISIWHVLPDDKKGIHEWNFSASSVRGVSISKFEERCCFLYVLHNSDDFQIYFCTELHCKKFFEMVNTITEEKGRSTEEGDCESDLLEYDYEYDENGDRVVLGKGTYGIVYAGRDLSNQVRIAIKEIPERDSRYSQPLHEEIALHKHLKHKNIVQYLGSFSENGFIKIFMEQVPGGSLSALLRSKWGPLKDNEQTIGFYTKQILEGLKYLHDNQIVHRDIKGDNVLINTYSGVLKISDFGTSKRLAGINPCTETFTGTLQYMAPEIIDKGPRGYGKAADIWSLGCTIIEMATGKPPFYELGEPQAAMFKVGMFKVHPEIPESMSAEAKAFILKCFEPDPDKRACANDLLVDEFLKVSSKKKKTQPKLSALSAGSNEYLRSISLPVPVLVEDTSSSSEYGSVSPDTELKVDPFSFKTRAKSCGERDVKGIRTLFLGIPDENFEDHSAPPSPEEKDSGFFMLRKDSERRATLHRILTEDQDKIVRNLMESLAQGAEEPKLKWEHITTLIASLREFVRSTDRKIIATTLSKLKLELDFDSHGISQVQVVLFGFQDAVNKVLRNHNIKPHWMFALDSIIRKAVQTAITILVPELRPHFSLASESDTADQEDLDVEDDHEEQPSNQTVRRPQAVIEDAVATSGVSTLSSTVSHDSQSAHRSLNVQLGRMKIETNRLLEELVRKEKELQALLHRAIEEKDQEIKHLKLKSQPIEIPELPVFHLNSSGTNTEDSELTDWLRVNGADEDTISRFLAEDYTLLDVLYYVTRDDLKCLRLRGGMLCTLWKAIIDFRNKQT
Experimental: (§1) The binding assay system for profiling kinase activity were based upon HotSpot technology (Reaction Biology Corp.; Malvern, Pa., USA) and utilized radio-isotope-based P81 filtration. […] Substrates for the various kinases tested against Compound 2 (substrate information available on the Reaction Biology Corp. website) were prepared fresh daily in Reaction Buffer. Any required cofactors were then added to the substrate solution. The identification and selection of the appropriate cofactor for each kinase is within the ability of a person skilled in the art. See, for example, Handbook of Assay Development in Drug Discovery, Ed. Lisa K. Minor, 2006: CRC Press, Boca Raton, Fla.; Gao et al., “A broad activity screen in support of a chemogenomic map for kinase signalling research and drug discovery,” Biochem J. 2013, 451(2): 313-28; and Eglen et al., “Drug discovery and the human kinome: Recent trends,” Pharmacology & Therapeutics 2011, 130(2): 144-156. The kinase was then added to the substrate solution and gently mixed. […] This was followed by incubation at room temperature for 2 h. The reaction was terminated and any unreacted phosphate was washed away using 0.1% phosphoric acid prior to detection utilizing a proprietary technology. […] DMSO was used as the negative control.
(§2) Percent inhibition was expressed as an average where the assay was performed more than once, e.g., in duplicate.

ERK1 = molecular target: T2, ERK1 (Homo sapiens, UniProt P27361)
T2 construct: purchased Reaction Biology Corp
T2 sequence (P27361 whole entry): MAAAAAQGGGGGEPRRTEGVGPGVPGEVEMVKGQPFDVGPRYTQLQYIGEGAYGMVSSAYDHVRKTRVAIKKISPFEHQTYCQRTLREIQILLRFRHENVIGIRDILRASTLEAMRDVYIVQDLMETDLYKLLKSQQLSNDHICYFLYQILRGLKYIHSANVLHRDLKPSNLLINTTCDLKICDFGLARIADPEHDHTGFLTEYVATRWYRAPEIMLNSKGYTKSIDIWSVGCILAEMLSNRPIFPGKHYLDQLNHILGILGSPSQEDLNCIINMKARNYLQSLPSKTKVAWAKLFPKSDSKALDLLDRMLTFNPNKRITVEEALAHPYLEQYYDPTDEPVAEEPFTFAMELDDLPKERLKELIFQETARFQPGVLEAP
Experimental: as §1, §2

MARK4 = molecular target: T3, MARK4 (Homo sapiens, UniProt Q96L34)
T3 construct: purchased Reaction Biology Corp
T3 sequence (Q96L34 1-752): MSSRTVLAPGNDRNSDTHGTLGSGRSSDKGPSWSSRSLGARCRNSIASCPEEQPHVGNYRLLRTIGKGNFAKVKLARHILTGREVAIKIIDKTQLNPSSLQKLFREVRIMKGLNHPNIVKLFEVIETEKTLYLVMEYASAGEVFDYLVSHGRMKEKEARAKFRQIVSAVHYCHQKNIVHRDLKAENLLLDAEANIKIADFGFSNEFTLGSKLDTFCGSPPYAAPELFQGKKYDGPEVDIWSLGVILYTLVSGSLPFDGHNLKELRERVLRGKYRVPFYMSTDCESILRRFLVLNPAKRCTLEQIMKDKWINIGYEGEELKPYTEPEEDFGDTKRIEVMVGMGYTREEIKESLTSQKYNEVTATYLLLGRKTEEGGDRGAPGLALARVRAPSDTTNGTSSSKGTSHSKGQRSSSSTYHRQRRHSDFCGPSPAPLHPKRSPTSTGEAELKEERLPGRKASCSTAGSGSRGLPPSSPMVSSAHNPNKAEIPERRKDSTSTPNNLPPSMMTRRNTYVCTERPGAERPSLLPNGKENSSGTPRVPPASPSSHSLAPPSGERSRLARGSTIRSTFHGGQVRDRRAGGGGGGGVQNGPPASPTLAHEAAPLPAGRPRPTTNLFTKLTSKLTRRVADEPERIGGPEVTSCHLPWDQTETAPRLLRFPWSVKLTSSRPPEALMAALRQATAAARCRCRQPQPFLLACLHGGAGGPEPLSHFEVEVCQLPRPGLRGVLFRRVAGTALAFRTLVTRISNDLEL
Experimental: as §1, §2

SIK1 = molecular target: T4, SIK1 (Homo sapiens, UniProt P57059)
T4 construct: purchased Reaction Biology Corp
T4 sequence (P57059 whole entry): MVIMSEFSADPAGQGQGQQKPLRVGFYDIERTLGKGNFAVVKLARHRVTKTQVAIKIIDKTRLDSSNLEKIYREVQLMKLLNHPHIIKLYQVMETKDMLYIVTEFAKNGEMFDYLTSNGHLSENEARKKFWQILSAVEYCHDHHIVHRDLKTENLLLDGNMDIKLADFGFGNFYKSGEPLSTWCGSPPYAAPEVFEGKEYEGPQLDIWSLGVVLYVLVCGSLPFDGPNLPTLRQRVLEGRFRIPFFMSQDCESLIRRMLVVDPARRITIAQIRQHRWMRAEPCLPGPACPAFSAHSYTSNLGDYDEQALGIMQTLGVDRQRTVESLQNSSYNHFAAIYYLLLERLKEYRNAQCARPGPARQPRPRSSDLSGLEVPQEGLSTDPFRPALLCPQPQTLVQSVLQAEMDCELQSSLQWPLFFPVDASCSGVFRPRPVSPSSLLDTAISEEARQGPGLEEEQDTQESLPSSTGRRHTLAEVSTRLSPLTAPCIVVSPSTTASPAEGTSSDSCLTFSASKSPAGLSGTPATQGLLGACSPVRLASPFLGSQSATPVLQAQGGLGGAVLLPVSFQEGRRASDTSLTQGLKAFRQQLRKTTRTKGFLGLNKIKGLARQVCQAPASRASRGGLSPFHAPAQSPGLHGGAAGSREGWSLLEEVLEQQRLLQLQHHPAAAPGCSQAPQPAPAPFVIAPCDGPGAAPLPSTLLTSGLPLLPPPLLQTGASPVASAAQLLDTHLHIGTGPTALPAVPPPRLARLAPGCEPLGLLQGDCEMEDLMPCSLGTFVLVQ
Experimental: as §1, §2

[1] = read-out: % Enzyme Activity (relative to DMSO controls) Run 1
[2] = read-out: % Enzyme Activity (relative to DMSO controls) Run 2

`C=CC(=O)Nc1cccc(Nc2nc(Nc3ccc(OCCOC)c(F)c3)ncc2F)c1` [Compound 2] showed an inhibition at 3 µM (ASK1/MAP3K5) of -1.62%, a remaining activity at 3 µM (ASK1/MAP3K5; [1]) of 101% and a remaining activity at 3 µM (ASK1/MAP3K5; [2]) of 102%. It also gave an inhibition at 3 µM (ERK1) of 1.32%, a remaining activity at 3 µM (ERK1; [1]) of 97.4% and a remaining activity at 3 µM (ERK1; [2]) of 99.9%. The inhibition at 3 µM (MARK4) was 18.5%, the remaining activity at 3 µM (MARK4; [1]) was 82.2% and the remaining activity at 3 µM (MARK4; [2]) was 80.9%. The inhibition at 3 µM (SIK1) was 51.4%, the remaining activity at 3 µM (SIK1; [1]) was 48.4% and the remaining activity at 3 µM (SIK1; [2]) was 48.7%.
